Values quoted from earlier work in patent US20040009207A1, “Medicinal beverage containing molecular oxygen” (priority 2000, published 2004).
Like-named read-outs stand apart in the source and are kept apart here.

Compound: O=O [O2, molecular oxygen]
- solubility of O2 in one litre water (0° C.): 0.0491 L
- solubility of O2 in one litre water (50° C.): 0.0209 L
